Experimental data from patent US20250017907A1, “METHOD FOR PREVENTING AND/OR TREATING LIVER FIBROSIS BY USING 6-METHOXYBENZOXAZOLINONE AND COIX LACHRYMA-JOBI L. EXTRACT COMPRISING 6-METHOXYBENZOXAZOLINONE” (Taichung District Agricultural Research and Extension …, priority 2023, published 2025).

What was measured:
Type in all cases: in vivo
[1] = test system: TAA-induced liver fibrotic C57BL/6J mice; assay: Serum biochemical analysis (liver function and nutrient metabolism); conditions: CX groups (20 and 50 mg/kg oral, 6 weeks); vs TAA group
Experimental: (§1) For tests of adlay extracts, mice were randomly divided into the following seven groups (n=6, per group): (1) No treatment group (NT, normal diet), (2) Thioacetamide group (TAA, 200 mg/kg, normal diet), (3) 10% adlay seed powder (ASP) group, (4) 1% adlay leaf powder (ALP) group, (5) 1% adlay seed polysaccharide (ASPS) group, (6) 0.025% adlay seed ethanolic extract (ASE) group and (7) 0.1% ASE group. NT group received pure saline, and other groups intraperitoneally injected with TAA dissolved into saline thrice a week.
(§2) For tests of CX, mice were randomly divided into the following four groups (n=8, per group): (1) NT group, (2) TAA group (200 mg/kg), (3) CX group (CX20, 20 mg/kg), and (4) CX group (CX50, 50 mg/kg). NT group received pure saline, and other groups intraperitoneally injected with TAA dissolved into saline thrice a week. Moreover, NT group and TAA group also received 5% propylene glycol, while CX groups received CX dissolved into 5% propylene glycol (prepared in 0.9% saline) by oral gavage once per day.
At the end of the experiment, the mice were sacrificed. Serum was obtained from the whole blood of mice after centrifuging and stored at −80° C., and the liver tissues were collected and used for the tissue histological staining.
The procedure of biochemical analysis is as follows. The levels of serum alanine aminotransferase (ALT), aspartate aminotransferase (AST), total bilirubin (TBIL), alkaline phosphatase (ALP), total cholesterol (TC), total glyceride (TG), and glucose were measured with the chemistry analyzer. Briefly, after centrifuging the whole blood from mice, collected the serum, dropped the serum at the tested chips for analysis with an Automated Clinical Chemistry Analyzer (Fuji, Japan).

[2] = test system: TAA-induced liver fibrotic C57BL/6J mice; assay: Liver histopathological observation (H&E, Sirius Red, IHC staining); conditions: 6 weeks; for collagen deposition (Sirius Red) / inflammatory infiltration (H&E) / liver structure deformation (H&E) / α-SMA expression (IHC): vs TAA group
Experimental: According to the present invention, animals used in the following examples are described as follows. Male C57BL/6J mice (5-week-old) were from the National Laboratory Animal Center (Taipei, Taiwan), and housed in a temperature-controlled room on a 12 h light-dark cycle with free access to food and drinking water at the Animal Center of the National Yang Ming Chiao Tung University (Taipei, Taiwan). All experiments were approved by Institutional Animal Care and Use Committee of National Yang Ming Chiao Tung University. […]
as §2, with “day. […]” for “day.”
The procedure of liver histopathological observation is as follows. After fixation in 10% neutral buffered formalin solution, the liver tissues were embedded with paraffin and then sliced into 4 μm-thickness sections. Pathological sections were examined to assess the change of tissue architecture with the H&E staining kit (CIS-Biotechnology, Taiwan), the condition of collagen deposition with the Sirius Red staining kit (CIS-Biotechnology, Taiwan), and the expression of specific proteins in tissue with the immunohistochemistry kit (Agilent, USA), as well as phospho-SMAD2 (1:100; GeneTex, USA), phospho-SMAD3 (1:100; GeneTex, USA), and α-SMA (1:100; GeneTex, USA) antibodies.
To examine the effects of CX on liver fibrosis, this example established a TAA-induced liver fibrotic C57BL/6J mouse model. FIG. 6 is a schematic diagram of animal experiment design in 6-methoxybenzoxazolinone (6-MBOA) (CX) groups. For animal experiments, 6-week-old C57BL/6J mice were randomly divided into four groups including NT, TAA, CX20 (TAA+20 mg/kg CX), CX50 (TAA+50 mg/kg CX). (n=8 per group). Mice were given intraperitoneal injection of TAA thrice a week to induce liver fibrosis; they also received CX or the vehicle by oral gavage once per day. At the end of animal tests, mice were sacrificed at 12 weeks of age. Six-week-old mice were randomly divided into four groups, namely NT, TAA, CX20 and CX50 (FIG. 6). Among these groups, only the NT group was oral gavaged and administered with vehicle, the TAA group was oral gavaged with vehicle and administered with TAA, and the CX groups were oral gavaged with CX and administered with TAA. Oral gavage was performed once a day while intraperitoneal injection was given thrice a week; both oral gavage and intraperitoneal injection were continuously administered for six weeks. After that, the mice were sacrificed, and their liver tissues and serum were collected for subsequent analyses.

[3] = test system: TAA-induced liver fibrotic C57BL/6J mice; assay: Real-time PCR of liver fibrotic and inflammatory genes; conditions: CX groups (20 and 50 mg/kg oral, 6 weeks); vs TAA group
Experimental: as §1, §2
The procedure of real-time PCR analysis is as follows. Total RNA was extracted with the Trizol reagent (Ambion, USA) and then reverse-transcribed into cDNA with RevertAid First Strand cDNA Synthesis kit (Thermo Scientific, USA). The PCR amplification was accomplished with SYBR Green PCR Master Mix (Applied Biosystems, USA), and the mRNA expression of the gene was normalized to GAPDH. All primers were obtained from Genomics (Genomics, Taiwan). Rat primer sequences are used for real-time PCR of HSC-T6 cells, and mouse primer sequences are used for real-time PCR of C57BL/6J mice.

[4] = test system: TAA-induced liver fibrotic C57BL/6J mice; assay: Serum TGF-β1 ELISA; conditions: CX groups (20 and 50 mg/kg oral, 6 weeks); vs TAA group
Experimental: as §2
To examine the effects of CX on liver fibrosis, this example established a TAA-induced liver fibrotic C57BL/6J mouse model. FIG. 6 is a schematic diagram of animal experiment design in 6-methoxybenzoxazolinone (6-MBOA) (CX) groups. For animal experiments, 6-week-old C57BL/6J mice were randomly divided into four groups including NT, TAA, CX20 (TAA+20 mg/kg CX), CX50 (TAA+50 mg/kg CX). (n=8 per group). […]
The procedure of TGF-β1 enzyme-linked immunosorbent assay (ELISA) is as follows. The level of TGF-β1 was detected in serum by using commercial mouse ELISA kits (Invitrogen, USA) and the working procedure was followed a standard sandwich ELISA protocol. […] After reacted with stop solution, immediately measured the color intensity at 450 nm by ELISA reader (TECAN, Switzerland).

[5] = CX20: 20 mg/kg oral gavage once per day
[6] = CX50: 50 mg/kg oral gavage once per day

COc1ccc2[nH]c(=O)oc2c1 [CX, 6-methoxybenzoxazolinone]
negatively regulated: p-SMAD2 expression (IHC) [2, 6] | p-SMAD3 expression (IHC) [2, 6]
significantly reduced: changes in serum TC level caused by TAA [1] | changes in serum TG level caused by TAA [1] | changes in serum glucose level caused by TAA [1] | collagen deposition (Sirius Red) [2, 5] | inflammatory infiltration (H&E) [2, 5] | liver structure deformation (H&E) [2, 5] | α-SMA expression (IHC) [2, 5] | collagen deposition (Sirius Red) [2, 6] | inflammatory infiltration (H&E) [2, 6] | liver structure deformation (H&E) [2, 6] | α-SMA expression (IHC) [2, 6] | upregulation of TGF-β1 in serum caused by TAA (ELISA) [4]
significantly decreased: TAA-induced downregulation of liver IL-10 mRNA level [3] | TAA-induced upregulation of liver COL1A1 mRNA [3] | TAA-induced upregulation of liver IL-6 mRNA level [3] | TAA-induced upregulation of liver TNF-α mRNA level [3] | TAA-induced upregulation of liver α-SMA mRNA [3]
decreased significantly: serum ALP [1] | serum ALT [1] | serum AST [1] | serum TBIL [1]
